# Data taken from patent US20100004174A1, “USE OF THYMOSIN ALPHA 1 FOR THE PREPARATION OF A MEDICAMENT FOR THE PREVENTION AND TREATMENT OF AUTOIMMUNE DISEASES” (SIGMA-TAU INDUSTRIE FARMACEUTICHE, priority 2006, published 2010).
# No end group written: not given here.
# Columns and labels:
# [1] = test system: TNBS colitis; assay: TNBS-induced colitis model of IBD (DAS, MAS, MPO); format: in vivo, mice
# Method: To this end, an IBD model was used envisaging the induction of the disease by intracolonic administration of a haptenised derivative of trinitrobenzene sulfonic acid (TNBS). The animals were treated with thymosin alpha 1, whose efficacy was evaluated according to clinical, histological and immunological parameters.
# The application of hapten TNBS in the colon causes acute and chronic colitis in the rodents (Fiorucci S, Antonelli E, Distrutti E, Del Soldato P, Flower R J, Clark M J, Morelli A, Perretti M, Ignarro L J. NCX-1015, a nitric-oxide derivative of prednisolone, enhances regulatory T cells in the lamina propria and protects against 2,4,6-trinitrobenzene sulfonic acid-induced colitis in mice. Proc Natl Acad Sci U S A. 2002, 99:15770-5).
# The animals were monitored daily for any onset of diarrhea, loss of body weight, blood in the faeces and to check their survival (correlated with the degree of activity of the disease, DAS). At the end of the experiment, the surviving mice were sacrificed, their colon dissected and the microscopic damage was evaluated (called mucosal activity score—MAS). The tissue segments were then used in order to measure the Myeloperoxidase (MPO) activity (an inflammation index).
# The sectioned colons were examined under a microscope (×5) and classified according to their microscopic lesions on a scale from 0 to 10 based on criteria reflecting the inflammation, such as hyperemia, bowel thickening, and extension of ulcers.
# MPO assays. Neutrophil infiltration in the colon was monitored by measuring MPO activity by means of a spectrophotometric assay with trimethylbenzidine (TMB) as a substrate according to a previously published method (Fiorucci S, Antonelli E, Distrutti E, Del Soldato P, Flower R J, Clark M J, Morelli A, Perretti M, Ignarro L J. NCX-1015, a nitric-oxide derivative of prednisolone, enhances regulatory T cells in the lamina propria and protects against 2,4,6-trinitrobenzene sulfonic acid-induced colitis in mice. Proc Natl Acad Sci U S A. 2002, 99:15770-5). The activity is expressed in U per mg of protein.
# (§1) Treatment with thymosin alpha 1. Tα1 (purchased from Sigma, St. Louis, Mo., USA; product no. T3410; molecular formula C129H215N33O55) and the scrambled peptide were provided in the form of sterile dried powders. The powders were reconstituted in sterile water (endotoxin levels were <0.03 pg/ml, by standard Limulus lysate assay). Thymosin alpha 1 was administered at a dosage of 200 microgrammi/kg by intraperitoneal injection for 6 consecutive days starting from the day of TNBS colitis induction.
# (§2) All the inflammatory and cytokine assessments were carried out the day after the end of treatment with thymosin alpha 1.
# [2] = test system: CD4+CD25+ lymphocytes isolated from the lamina propria; assay: Cytokine determination by ELISA on CD4+CD25+ lamina propria lymphocytes of mice with TNBS colitis; format: in vivo; conditions: TNBS+Tα1 mice; cells stimulated in vitro 48 h with anti-CD3 and anti-CD28, FIG. 4
# Method: as §1
# Cytokine determination. This was carried out via specific ELISA tests (ELISA kit, R&D Systems Inc, Minneapolis, Minn.) on the supernatants of lymphocyte cell cultures of CD4^+CD^25+ phenotype isolated from the lamina propria and stimulated in vitro for 48 h with antibodies directed against CD3 and CD28 molecules expressed on the lymphocytes (PharMingen, BD, Palo Alto, Calif.).
# as §2
# [3] = test system: EAE (experimental autoimmune encephalitis); assay: EAE model induced with MOG35-55 peptide in mice, clinical score and spinal cord histology; format: in vivo, C57BL6 mice
# Method: To this end, an EAE model was used envisaging the induction of disease by administering a peptide deriving from myelin in susceptible animals. The anima were treated with thymosin alpha 1, whose efficiency was evaluated according to clinical and histological parameters.
# EAE is induced in C57BL6 mice by injecting 100 microlitres of emulsion consisting of 100 microgrammes of MOG35-55 (a peptide fragment of a myelinic glycoprotein) in complete Freund adjuvant (CFA, 4 microgrammes/ml) at the base of the tail. EAE induction is favoured by the intraperitoneal administration of the pertoxic toxin at a dosage of 200 ng/mouse the day of immunisation and three days later. The treatment with thymosin alpha 1 (200 ng/Kg) is carried out via intraperitoneal injection according to two experimental designs. In the first case, thymosin is administered starting from the day of MOG administration and for three consecutive days thereafter (Tα1+MOG). In the second case, thymosin is administered starting from the tenth day after MOG administration and for three consecutive days thereafter (MOG+Tα1).
# The mice were clinically evaluated daily according to the following parameters: 0, normal; 1, flacid tail or weakness of hind legs; 2, flacid tail associated with weakness of hind legs; 3, partial paralysis of hind legs; 4, total paralysis of hind legs; 5, moribund state. […]
# [4] = TNBS colitis, 200 microgrammi/kg intraperitoneal for 6 consecutive days, assessed the day after end of treatment, FIG. 3
substance,measurement,setting,value
"thymosin alpha 1 (Ac-SDAAVDTSSEITTKDLKEKKEVVEEAEN; ends and bridges not checked; UniProt P06454 2-29, looked up) [thymic peptide found in nature; purchased from Sigma, product no; T3410]",DAS (degree of activity of the disease),[1]; [4],drastic reduction
same,MAS (mucosal activity score),[1]; [4],drastic reduction
same,MPO (myeloperoxidase) activity in colon,[1]; [4],drastic reduction
same,overall effect on the severity of IBD,"[1]; experimental models of colitis, conclusion",protective effect
same,IL-10 production,[2],clear prevalence of IL-10 production
same,"inflammatory/anti-inflammatory cytokine production pattern (IFN-γ, IL-17, IL-10)",[2],significantly disrupted
same,"de-myelination, histological analysis of semifine spinal chord sections coloured with osmium tetroxide","[3]; MOG-immunised mice treated with thymosin alpha 1, FIG. 2",no significant sign of de-myelination
same,overall effect on EAE incidence and neuropathological severity,[3]; conclusion from FIG. 1 and FIG. 2,protective effect
